Among the data in US20170217946A1, “AMINO-SUBSTITUTED ISOXAZOLES” (Bayer Pharma Aktiengesellschaft, priority 2014, published 2017) are IC50 values, retold here.

Broadly, the IC50 is the point on the concentration scale where inhibition reaches its midpoint.

Each structure is given as a SMILES string.

This experiment addresses T1, human kinase Mps-1 (Homo sapiens, UniProt P33981).
T1 construct: human full length recombinant Mps-1 kinase; GST (N); purchased Invitrogen, Karslruhe, Germany PV4071
T1 sequence (P33981 1-857): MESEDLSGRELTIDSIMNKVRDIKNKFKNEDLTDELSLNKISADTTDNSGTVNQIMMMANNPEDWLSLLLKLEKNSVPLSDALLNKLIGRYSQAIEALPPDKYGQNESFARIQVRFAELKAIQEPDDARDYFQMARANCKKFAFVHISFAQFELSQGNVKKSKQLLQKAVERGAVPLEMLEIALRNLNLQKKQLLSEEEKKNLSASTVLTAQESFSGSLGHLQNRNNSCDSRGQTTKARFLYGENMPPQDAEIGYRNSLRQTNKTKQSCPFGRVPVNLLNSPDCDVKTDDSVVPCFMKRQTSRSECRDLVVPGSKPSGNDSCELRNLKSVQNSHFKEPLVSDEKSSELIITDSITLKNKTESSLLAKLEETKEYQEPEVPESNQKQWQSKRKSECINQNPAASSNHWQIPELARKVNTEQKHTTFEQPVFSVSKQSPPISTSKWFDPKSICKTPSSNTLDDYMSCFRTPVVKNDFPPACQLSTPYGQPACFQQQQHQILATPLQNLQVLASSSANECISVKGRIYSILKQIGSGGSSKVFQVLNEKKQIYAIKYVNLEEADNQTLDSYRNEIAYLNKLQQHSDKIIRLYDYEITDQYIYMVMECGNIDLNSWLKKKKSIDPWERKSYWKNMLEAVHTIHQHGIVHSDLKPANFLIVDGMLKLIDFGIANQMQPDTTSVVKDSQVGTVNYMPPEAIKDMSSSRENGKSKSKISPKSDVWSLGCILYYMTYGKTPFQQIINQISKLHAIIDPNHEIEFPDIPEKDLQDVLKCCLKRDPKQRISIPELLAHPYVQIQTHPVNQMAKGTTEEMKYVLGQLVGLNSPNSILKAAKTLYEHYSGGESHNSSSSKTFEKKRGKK
The experiment in a line: Mps-1 kinase assay (TR-FRET). In kind it is biochemical. The settings on record: 10 μM ATP; read-out: Mps1 avg (IC50). The method, then:
The human kinase Mps-1 phosphorylates a biotinylated substrate peptide. Detection of the phosphorylated product is achieved by time-resolved fluorescence resonance energy transfer (TR-FRET) from Europium-labelled anti-phospho-Serine/Threonine antibody as donor to streptavidin labelled with cross-linked allophycocyanin (SA-XLent) as acceptor. Compounds are tested for their inhibition of the kinase activity.
N-terminally GST-tagged human full length recombinant Mps-1 kinase (purchased from Invitrogen, Karslruhe, Germany, cat. no PV4071) was used. […]
The resulting mixture was incubated 1 h at 22° C. to allow the binding of the phosphorylated peptide to the anti-phospho(Ser/Thr)-Europium-antibody. Subsequently the amount of phosphorylated substrate was evaluated by measurement of the resonance energy transfer from the Europium-labelled anti-phospho(Ser/Thr) antibody to the Streptavidin-XLent. Therefore, the fluorescence emissions at 620 nm and 665 nm after excitation at 350 nm was measured in a Viewlux TR-FRET reader (PerkinElmer LAS, Rodgau-Jügesheinn, Germany). The “blank-corrected normalized ratio” (a Viewlux specific readout, similar to the traditional ratio of the emissions at 665 nm and at […], in which blank and Eu-donor crosstalk are subtracted from the 665 nm signal before the ratio is calculated) was taken as the measure for the amount of phosphorylated substrate. […]

In the case of `Cc1noc(Nc2cnc(C(=O)NC3CCN(CC(F)F)CC3)cn2)c1C(=O)Nc1ccc(F)c(F)c1` [Example 1b, N-[1-(2,2-Difluoroethyl)piperidin-4-yl]-5-({4-[(3,4-difluorophenyl)carbamoyl]-3-methyl-1,2-oxazol-5-yl}amino)pyrazine-2-carboxamide], the IC50 is 16 µM.
